Holding throughout (type): cell-based
The subject of one experiment is Mero14 cells. Kind of experiment: Mero14 proliferation and cell viability assay (CTG). The note with it: 144 hours. Here is the method: Mero14 cells were trypsinised, counted and plated at 400 cells/well in 200 μl of growth media in 96 well flat bottom tissue culture treated plates. The plated cells were incubated overnight at 37° C., 5% CO2 before being treated with compounds in triplicate for each assay point. 50 μl of the serially diluted compound was added to each well giving a final DMSO concentration of 0.5% per well and a total volume of 250 μl per well. The treated cells were incubated for 144 hours (6 days) at 37° C., 5% CO2. Following compound treatment the remaining viable cells were detected using the Promega CellTiter-Glo 2.0 assay as follows: 150 μl of media was removed from each of the wells to be assayed and 100 μl of room temperature CellTiter-Glo 2.0 reagent was added. The plate was placed on an orbital shaker at 500 rpm at room temperature for 2 minutes, and then incubated without shaking for a further 10 minutes at room temperature. 150 μl of cell lysate was removed from each well and dispensed into a single well of a white opaque 96 well plate. Luminescence at 545 nm was read using a BMG CLARIOstar plate reader. The luminescent signal was directly proportional to number of viable cells, the percent of viable cells relative to the DMSO control was then calculated for each assay point. Percent viability relative to DMSO control is plotted against compound concentration and a curve fitted with non-linear regression in GraphPad Prism software. EC50 and absolute IC50 values were calculated using GraphPad Prism software as follows: For EC50 values, a non-constrained four-parameter logistic curve fit was used (Sigmoidal, 4PL, X is concentration). For Absolute IC50 values the baseline was constrained to Y=0 and top at 100 (Absolute IC50, X is concentration). Area Under the Curve (AUC): Prism computed area-under-the-curve by the trapezoidal method. The analysis sees a fitted curve as simply a series of connected XY points. Prism simply computes the area under the “curve” defined by connecting the points by straight lines. The units of the AUC are the units of the Y axis times units of the X axis.
(§1) For EC50 data, the symbol “A” indicates a value of less than 0.2 μM; the symbol “B” indicates a value in the range of from 0.2 μM up to 1 μM; and the symbol “C” indicates a value of greater than 1 μM.

A further experiment relates to Mero82 cells. In words: Mero82 proliferation and cell viability assay (CTG). The note with it: 144 hours. Here is the method: Mero 82 cells were trypsinised, counted and plated at 400 cells/well in 200 μl of growth media in 96 well flat bottom tissue culture treated plates. The plated cells were incubated overnight at 37° C., 5% CO2 before being treated with compounds in triplicate for each assay point. 50 μl of the serially diluted compound was added to each well giving a final DMSO concentration of 0.5% per well and a total volume of 250 μl per well. The treated cells were incubated for 144 hours (6 days) at 37° C., 5% CO2. Following compound treatment, the remaining viable cells were detected using the Promega CellTiter-Glo 2.0 assay as follows: 150 μl of media was removed from each of the wells to be assayed and 100 μl of room temperature CellTiter-Glo 2.0 reagent was added. The plate was placed on an orbital shaker at 500 rpm at room temperature for 2 minutes, and then incubated without shaking for a further 10 minutes at room temperature. 150 μl of cell lysate was removed from each well and dispensed into a single well of a white opaque 96 well plate. Luminescence at 545 nm was read using a BMG CLARIOstar plate reader. The luminescent signal was directly proportional to number of viable cells, the percent of viable cells relative to the DMSO control was then calculated for each assay point. Percent viability relative to DMSO control was plotted against compound concentration and a curve fitted with non-linear regression in GraphPad Prism software. EC50 and absolute IC50 values were calculated using GraphPad Prism software as follows: For EC50 values, a non-constrained four-parameter logistic curve fit was used (Sigmoidal, 4PL, X is concentration). For Absolute IC50 values the baseline was constrained to Y=0 and top at 100 (Absolute IC50, X is concentration). Area Under the Curve (AUC): Prism computes area-under-the-curve by the trapezoidal method. The analysis sees a fitted curve as simply a series of connected XY points. Prism simply computes the area under the “curve” defined by connecting the points by straight lines. The units of the AUC are the units of the Y axis times units of the X axis.
as §1

The next experiment concerns LOU-NH91 cells. Kind of experiment: LOU-NH91 proliferation and cell viability assay (CTG). To be noted: 216 hours. Here is the method:
LOU-NH91 cells were trypsinised, counted and plated at 1000 cells/well in 200 μl of growth media in 96 well flat bottom tissue culture treated plates. The plated cells were incubated overnight at 37° C., 5% CO2 before being treated with compounds in triplicate for each assay point. 50 μl of the serially diluted compound was added to each well giving a final DMSO concentration of 0.5% per well and a total volume of 250 μl per well. The treated cells were incubated for 216 hours (9 days) at 37° C., 5% CO2. Following compound treatment, the remaining viable cells were detected using the Promega CellTiter-Glo 2.0 assay as follows: 150 μl of media was removed from each of the wells to be assayed and 100 μl of room temperature CellTiter-Glo 2.0 reagent was added. The plate was placed on an orbital shaker at 500 rpm at room temperature for 2 minutes, and then incubated without shaking for a further 10 minutes at room temperature. 150 μl of cell lysate was removed from each well and dispensed into a single well of a white opaque 96 well plate. Luminescence at 545 nm was read using a BMG CLARIOstar plate reader. The luminescent signal was directly proportional to number of viable cells, the percent of viable cells relative to the DMSO control was then calculated for each assay point. Percent viability relative to DMSO control was plotted against compound concentration and a curve fitted with non-linear regression in GraphPad Prism software. EC50 and absolute IC50 values were calculated using GraphPad Prism software as follows: For EC50 values a non-constrained four-parameter logistic curve fit was used (Sigmoidal, 4PL, X is concentration). For Absolute IC50 values the baseline was constrained to Y=0 and top at 100 (Absolute IC50, X is concentration). Area Under the Curve (AUC): Prism computes area-under-the-curve by the trapezoidal method. The analysis sees a fitted curve as simply a series of connected XY points. Prism simply computes the area under the “curve” defined by connecting the points by straight lines. The units of the AUC are the units of the Y axis times units of the X axis. […]

From patent publication US20260317304A1, “TEAD INHIBITORS AND METHODS OF USE” (Sporos BioDiscovery, Inc., priority 2022, published 2026) come the findings set out here.

A word on the EC50: it is the concentration that produces a half-maximal response. Turning to `Cn1nnc(-c2cc([C@]3(C)CCNC3=O)ccc2Nc2ccc(C(F)(F)F)cc2)n1` (stereo in doubt) [Compound 20, 3-methyl-3-(3-(2-methyl-2H-tetrazol-5-yl)-4-((4-(trifluoromethyl)phenyl)amino)phenyl) pyrrolidin-2-one], the EC50 with Mero14 cells and in the experiment on Mero82 cells was less than 200 nM throughout.
For `Cn1cnc(-c2cc([C@@]3(C)CCNC3=O)ccc2Nc2ccc(C(F)(F)F)cc2)c1` (single isomer, unassigned) [Compound 5, 3-methyl-3-(3-(1-methyl-1H-imidazol-4-yl)-4-((4-(trifluoromethyl)phenyl)amino)phenyl)pyrrolidin-2-one], the EC50 in the experiment with Mero14 cells, in the experiment with LOU-NH91 cells and in the experiment on Mero82 cells was less than 200 nM in each case.
Turning to `C=CC(=O)Nc1ccc(C)c(Oc2ccc(Cl)cc2)c1` [Compound 1-3, reference compound], the EC50 in the experiment with Mero14 cells, with LOU-NH91 cells and in the experiment with Mero82 cells was less than 200 nM throughout.
In the case of `FC(F)(F)c1ccc(CN2CCC(C3CC(Br)=NO3)CC2)cc1` (stereo not shown) [Compound 1-2, reference compound], the EC50 was 200 to 1000 nM with Mero14 cells, less than 200 nM in the experiment on LOU-NH91 cells and more than 1000 nM in the experiment with Mero82 cells.
On to `Cn1cnc(-c2cc(C3(C)NC(=O)NC3=O)ccc2Nc2ccc(C(F)(F)F)cc2)c1` (single isomer, unassigned) [Compound 15, 5-methyl-5-(3-(1-methyl-1H-imidazol-4-yl)-4-((4-(trifluoromethyl)phenyl)amino)phenyl)imidazolidine-2,4-dione], for which the EC50 in the experiment on Mero14 cells and in the experiment with Mero82 cells was less than 200 nM each time.
